Laboratory results published in ChEMBL document CHEMBL1146337, “Efficient synthesis of substituted 7-methyl-2H,5H-pyrano[4,3-b]pyran-5-ones and evaluation of their in vitro antiproliferative/cytotoxic activities” (Bioorg Med Chem Lett, 2007).
The source made the active and inactive calls. The calls are words filed in the database; no cut-off is given here.

Legend:
SH-SY5Y [1] = test: Antiproliferative activity against human SH-SY5Y cells at 50 ug/mL after 24 hrs; assay type: functional
SH-SY5Y [2] = test: Antiproliferative activity against human SH-SY5Y cells at 25 ug/mL after 24 hrs; assay type: functional
SH-SY5Y [3] = test: Cytotoxicity against human SH-SY5Y cells after 24 hrs; assay type: functional, cell-based
SH-SY5Y [4] = test: Antiproliferative activity against human SH-SY5Y cells at 12.5 ug/mL after 24 hrs; assay type: functional
SH-SY5Y [5] = test: Antiproliferative activity against human SH-SY5Y cells at 6.25 ug/mL after 24 hrs; assay type: functional
SH-SY5Y [6] = test: Antiproliferative activity against human SH-SY5Y cells at 3.13 ug/mL after 24 hrs; assay type: functional
SH-SY5Y [7] = test: Antiproliferative activity against human SH-SY5Y cells at 1.56 ug/mL after 24 hrs; assay type: functional
IPC = test: Necrotic effect in human IPC cells at 12.5 ug/mL after 3 hrs; assay type: functional, cell-based

SMILES: CC1=Cc2c(cc(C)oc2=O)OC1C (configuration not stated)
- inhibition at 50 µg/mL (SH-SY5Y [1]): 53.8%
- inhibition at 25 µg/mL (SH-SY5Y [2]): 43.8%
- IC50 (SH-SY5Y [3]): 200 µM

SMILES: Cc1cc2c(c(=O)o1)C=C(C(C)C)C(CC(C)C)O2 (configuration not stated)
- inhibition at 50 µg/mL (SH-SY5Y [1]): 95.7%
- inhibition at 25 µg/mL (SH-SY5Y [2]): 96.6%
- inhibition at 12.5 µg/mL (SH-SY5Y [4]): 94%
- inhibition at 6.25 µg/mL (SH-SY5Y [5]): 93.8%
- inhibition at 3.13 µg/mL (SH-SY5Y [6]): 87.5%
- inhibition at 1.56 µg/mL (SH-SY5Y [7]): 38.5%
- IC50 (SH-SY5Y [3]): 6.7 µM
- Activity (IPC): inactive

SMILES: Cc1cc2c(c(=O)o1)C=C(c1ccccc1)C(CC(C)C)O2 (configuration not stated)
- inhibition at 50 µg/mL (SH-SY5Y [1]): 81.7%
- inhibition at 25 µg/mL (SH-SY5Y [2]): 45.7%
- inhibition at 12.5 µg/mL (SH-SY5Y [4]): 14.6%
- IC50 (SH-SY5Y [3]): 93 µM

SMILES: Cc1cc2c(c(=O)o1)C=C1C(C[C@H]3C[C@@H]1C3(C)C)O2 (some centres not stated)
- inhibition at 50 µg/mL (SH-SY5Y [1]): 84.1%
- inhibition at 25 µg/mL (SH-SY5Y [2]): 67.8%
- inhibition at 12.5 µg/mL (SH-SY5Y [4]): 24.4%
- IC50 (SH-SY5Y [3]): 70 µM

SMILES: Cc1cc2c(c(=O)o1)C=C1C(C)(C)CCCC1(C)O2 (configuration not stated)
- inhibition at 50 µg/mL (SH-SY5Y [1]): 75.1%
- inhibition at 25 µg/mL (SH-SY5Y [2]): 74.2%
- inhibition at 12.5 µg/mL (SH-SY5Y [4]): 72.9%
- inhibition at 6.25 µg/mL (SH-SY5Y [5]): 18.4%
- inhibition at 3.13 µg/mL (SH-SY5Y [6]): 1.11%
- inhibition at 1.56 µg/mL (SH-SY5Y [7]): 8.34%
- IC50 (SH-SY5Y [3]): 31 µM

SMILES: Cc1cc2c(c(=O)o1)C=C1CCCC1O2 (configuration not stated)
- inhibition at 50 µg/mL (SH-SY5Y [1]): 51.2%
- inhibition at 25 µg/mL (SH-SY5Y [2]): 14.9%
- inhibition at 12.5 µg/mL (SH-SY5Y [4]): 19.3%
- IC50 (SH-SY5Y [3]): 252 µM

SMILES: CC(C)=CCCC1(C)C=Cc2c(cc(C)oc2=O)O1 (configuration not stated)
- inhibition at 50 µg/mL (SH-SY5Y [1]): 37.4%
- inhibition at 25 µg/mL (SH-SY5Y [2]): 30.4%
- IC50 (SH-SY5Y [3]): > 200 µM

SMILES: CC1=Cc2c(cc(C)oc2=O)OC1c1ccco1 (configuration not stated)
- inhibition at 50 µg/mL (SH-SY5Y [1]): 64.4%
- inhibition at 25 µg/mL (SH-SY5Y [2]): 64.3%
- inhibition at 12.5 µg/mL (SH-SY5Y [4]): 50.6%
- inhibition at 6.25 µg/mL (SH-SY5Y [5]): 30.9%
- inhibition at 3.13 µg/mL (SH-SY5Y [6]): 21.6%
- IC50 (SH-SY5Y [3]): 49 µM

SMILES: CCCCCCCCC1C=Cc2c(cc(C)oc2=O)O1 (configuration not stated)
- inhibition at 50 µg/mL (SH-SY5Y [1]): 83.3%
- inhibition at 25 µg/mL (SH-SY5Y [2]): 60.1%
- inhibition at 12.5 µg/mL (SH-SY5Y [4]): 21.1%
- IC50 (SH-SY5Y [3]): 76 µM

SMILES: Cc1cc2c(c(=O)o1)C=C1CCCCC1(C)O2 (configuration not stated)
- inhibition at 50 µg/mL (SH-SY5Y [1]): 60.6%
- inhibition at 25 µg/mL (SH-SY5Y [2]): 11.4%
- inhibition at 12.5 µg/mL (SH-SY5Y [4]): 1.18%
- IC50 (SH-SY5Y [3]): 185 µM

SMILES: CCC1C=Cc2c(cc(C)oc2=O)O1 (configuration not stated)
- inhibition at 50 µg/mL (SH-SY5Y [1]): 43.7%
- inhibition at 25 µg/mL (SH-SY5Y [2]): 4.95%
- inhibition at 12.5 µg/mL (SH-SY5Y [4]): 3.62%
- IC50 (SH-SY5Y [3]): > 200 µM

SMILES: Cc1cc2c(c(=O)o1)C=C1C(C)(C)CC=CC1(C)O2 (configuration not stated)
- inhibition at 50 µg/mL (SH-SY5Y [1]): 84.8%
- inhibition at 25 µg/mL (SH-SY5Y [2]): 79.8%
- inhibition at 12.5 µg/mL (SH-SY5Y [4]): 51.9%
- inhibition at 6.25 µg/mL (SH-SY5Y [5]): 16.9%
- inhibition at 3.13 µg/mL (SH-SY5Y [6]): 6.01%
- IC50 (SH-SY5Y [3]): 47 µM
